Molecular target: T1, CDK2 (Homo sapiens, UniProt P24941)
T1 construct: endogenous in cells; host or cells: OVCAR3 cells
Assay: Phospho-RB measurement in OVCAR3 cells (HTRF phospho-RB S807/811)
Assay type: cell-based
Details: phosphorylation of RB protein at S807/811, HTRF, 24 h compound treatment, 0.3 to 10,000 nM, read-out: pRb (uM)
Procedure: The ability of compounds of Formula (I) to inhibit CDK2 was determined in OVCAR3 cells. Phosphorylation of RB protein at S807/811 were measured using HTRF phospho-RB cellular kits (Cat #64RBS807PEG) from Cisbio.
On Day 1, OVCAR3 cells were seeded into 96-well tissue-culture treated plates at 20,000 cells/well in 200 μL and incubated overnight at 37° C. in CO2 atmosphere. On Day 2, the cells were treated with test compounds at concentrations from 0.3 to 10,000 nM using HP D300 digital dispenser. Twenty-four hours after compound treatment, cell culture media was removed by flicking the plate and tapping the plate against clean paper towel. Immediately 30 μL 1× lysis buffer was supplemented from the kit and the plate was incubated at room temperature on shaker for 30 min. After homogenization by pipetting up and down, 8 μL cell lysate from 96-well cell culture plate was transferred to 384-well small volume white detection plate. 2 μL premixed detection solution was added and the plate was covered with sealer. To prepare the detection solution, d2 conjugated-phospho-RB antibody and Eu-cryptate conjugated phosphor-RB antibody were diluted into detection buffer following manufacturer's instruction.
Detection plates were incubated for 4 h at room temperature and read on ClarioStar (BMG Labtech) in TR-FRET mode ([…]). The TR-FRET ratio (665 nM1/620 nM) was plotted against the compound concentration and normalized to DMSO controls. Half maximal inhibition concentration (IC50) values are calculated with a four-parameter logistic fit using GraphPad Prism (version 8; La Jolla, CA).

SMILES | IC50
CN1CC2CC(C1)N2c1nc(-c2cccc(NS(=O)(=O)c3c(F)cccc3F)c2F)c(-c2ccnc(NC3CC4(C3)CS(=O)(=O)C4)n2)s1 [Example 22, N-(3-(5-(2-((2,2-dioxido-2-thiaspiro[3.3]heptan-6-yl)amino)pyrimidin-4-yl)-2-(3-methyl-3,6-diazabicyclo[3.1.1]heptan-6-yl)thiazol-4-yl)-2-fluorophenyl)-2,6-difluorobenzenesulfonamide] | 0.44 µM
CN1C2CCC1CN(c1nc(-c3cccc(NS(=O)(=O)c4c(F)cccc4F)c3F)c(-c3ccnc(NC4CC5(C4)CS(=O)(=O)C5)n3)s1)C2 [Example 23, N-(3-(5-(2-((2,2-dioxido-2-thiaspiro[3.3]heptan-6-yl)amino)pyrimidin-4-yl)-2-(8-methyl-3,8-diazabicyclo[3.2.1]octan-3-yl)thiazol-4-yl)-2-fluorophenyl)-2,6-difluorobenzenesulfonamide] | 1.74 µM
CC1(C)CCCN1c1nc(-c2cccc(NS(=O)(=O)c3c(F)cccc3F)c2F)c(-c2ccnc(NC3CC4(C3)CS(=O)(=O)C4)n2)s1 [Example 24, N-(3-(2-(2,2-dimethylpyrrolidin-1-yl)-5-(2-((2,2-dioxido-2-thiaspiro[3.3]heptan-6-yl)amino)pyrimidin-4-yl)thiazol-4-yl)-2-fluorophenyl)-2,6-difluorobenzenesulfonamide] | 1.46 µM
CN(C)C1CC2CCC(C1)N2c1nc(-c2cccc(NS(=O)(=O)c3c(F)cccc3F)c2F)c(-c2ccnc(NC3CC4(C3)CS(=O)(=O)C4)n2)s1 (centres unmarked) [Example 25, N-(3-(2-(3-(dimethylamino)-8-azabicyclo[3.2.1]octan-8-yl)-5-(2-((2,2-dioxido-2-thiaspiro[3.3]heptan-6-yl)amino)pyrimidin-4-yl)thiazol-4-yl)-2-fluorophenyl)-2,6-difluorobenzenesulfonamide] | 1.55 µM
O=S1(=O)CC2(CC(Nc3nccc(-c4sc(C56CC(C5)C6)nc4-c4cccc(NS(=O)(=O)c5c(F)cccc5C(F)(F)F)c4F)n3)C2)C1 [Example 26, N-(3-(2-(bicyclo[1.1.1]pentan-1-yl)-5-(2-((2,2-dioxido-2-thiaspiro[3.3]heptan-6-yl)amino)pyrimidin-4-yl)thiazol-4-yl)-2-fluorophenyl)-2-fluoro-6-(trifluoromethyl)benzenesulfonamide] | 0.016 µM
CS(=O)(=O)C1CCC(Nc2nccc(-c3sc(C45CC(F)(C4)C5)nc3-c3cccc(NS(=O)(=O)c4c(F)cccc4C(F)(F)F)c3F)n2)CC1 (centres unmarked) [Example 27, 2-fluoro-N-(2-fluoro-3-(2-(3-fluorobicyclo[1.1.1]pentan-1-yl)-5-(2-(((1s,4s)-4-(methylsulfonyl)cyclohexyl)amino)pyrimidin-4-yl)thiazol-4-yl)phenyl)-6-(trifluoromethyl)benzenesulfonamide] | 0.066 µM
CN1CC2CCC1CN2c1nc(-c2cccc(NS(=O)(=O)c3c(F)cccc3F)c2F)c(-c2ccnc(NC3CC4(C3)CS(=O)(=O)C4)n2)s1 (centres unmarked) [Example 28, N-(3-(5-(2-((2,2-dioxido-2-thiaspiro[3.3]heptan-6-yl)amino)pyrimidin-4-yl)-2-(5-methyl-2,5-diazabicyclo[2.2.2]octan-2-yl)thiazol-4-yl)-2-fluorophenyl)-2,6-difluorobenzenesulfonamide] | 1.17 µM
CC1(C)CCN1c1nc(-c2cccc(NS(=O)(=O)c3c(F)cccc3F)c2F)c(-c2ccnc(NC3CC4(C3)CS(=O)(=O)C4)n2)s1 [Example 29, N-(3-(2-(2,2-dimethylazetidin-1-yl)-5-(2-((2,2-dioxido-2-thiaspiro[3.3]heptan-6-yl)amino)pyrimidin-4-yl)thiazol-4-yl)-2-fluorophenyl)-2,6-difluorobenzenesulfonamide] | 0.27 µM
O=S1(=O)CC2(CC(Nc3nccc(-c4sc(C56CC(C5)C6)nc4-c4cccc(NS(=O)(=O)c5c(Cl)cccc5Cl)c4F)n3)C2)C1 [Example 31, N-(3-(2-(bicyclo[1.1.1]pentan-1-yl)-5-(2-((2,2-dioxido-2-thiaspiro[3.3]heptan-6-yl)amino)pyrimidin-4-yl)thiazol-4-yl)-2-fluorophenyl)-2,6-dichlorobenzenesulfonamide] | 0.07 µM
O=S1(=O)CC2(CC(Nc3nccc(-c4sc(C56CCC(CC5)C6)nc4-c4cccc(NS(=O)(=O)c5c(F)cccc5F)c4F)n3)C2)C1 [Example 32, N-(3-(2-(bicyclo[2.2.1]heptan-1-yl)-5-(2-((2,2-dioxido-2-thiaspiro[3.3]heptan-6-yl)amino)pyrimidin-4-yl)thiazol-4-yl)-2-fluorophenyl)-2,6-difluorobenzenesulfonamide] | 0.08 µM
CC1(C#N)CC2CCC(C1)N2c1nc(-c2cccc(NS(=O)(=O)c3c(F)cccc3F)c2F)c(-c2ccnc(NC3CC4(C3)CS(=O)(=O)C4)n2)s1 (centres unmarked) [Example 33, N-(3-(2-(3-cyano-3-methyl-8-azabicyclo[3.2.1]octan-8-yl)-5-(2-((2,2-dioxido-2-thiaspiro[3.3]heptan-6-yl)amino)pyrimidin-4-yl)thiazol-4-yl)-2-fluorophenyl)-2,6-difluorobenzenesulfonamide] | 0.1 µM
O=S1(=O)CC2(CC(Nc3nccc(-c4sc(C56CC(CO)(C5)C6)nc4-c4cccc(NS(=O)(=O)c5c(F)cccc5F)c4F)n3)C2)C1 [Example 34, N-(3-(5-(2-((2,2-dioxido-2-thiaspiro[3.3]heptan-6-yl)amino)pyrimidin-4-yl)-2-(3-(hydroxymethyl)bicyclo[1.1.1]pentan-1-yl)thiazol-4-yl)-2-fluorophenyl)-2,6-difluorobenzenesulfonamide] | 2.01 µM
CS(=O)(=O)[C@H]1CC[C@H](Nc2nccc(-c3sc(C45CC(C(F)(F)F)(C4)C5)nc3-c3cccc(NS(=O)(=O)c4c(F)cccc4C(F)(F)F)c3F)n2)CC1 [Example 35, 2-fluoro-N-(2-fluoro-3-(5-(2-(((1r,4r)-4-(methylsulfonyl)-cyclohexyl)amino)pyrimidin-4-yl)-2-(3-(trifluoromethyl)-bicyclo[1.1.1]pentan-1-yl)thiazol-4-yl)phenyl)-6-(trifluoromethyl)-benzenesulfonamide] | 0.29 µM
CS(=O)(=O)[C@H]1CC[C@H](Nc2nccc(-c3sc(C45CC(C4)C5)nc3-c3cccc(NS(=O)(=O)c4c(F)cccc4C(F)(F)F)c3F)n2)CC1 [Example 36] | 0.09 µM
O=S1(=O)CC2(CC(Nc3nccc(-c4sc(N5CC6CCC(C5)N6c5ccccn5)nc4-c4cccc(NS(=O)(=O)c5c(F)cccc5F)c4F)n3)C2)C1 [Example 37, N-(3-(5-(2-((2,2-dioxido-2-thiaspiro[3.3]heptan-6-yl)amino)-pyrimidin-4-yl)-2-(8-(pyridin-2-yl)-3,8-diazabicyclo[3.2.1]octan-3-yl)thiazol-4-yl)-2-fluorophenyl)-2,6-difluorobenzenesulfonamide] | 0.42 µM
O=S1(=O)CCC(N2CC3CCC(C2)N3c2nc(-c3cccc(NS(=O)(=O)c4c(F)cccc4F)c3F)c(-c3ccnc(NC4CC5(C4)CS(=O)(=O)C5)n3)s2)CC1 [Example 38, N-(3-(5-(2-((2,2-dioxido-2-thiaspiro[3.3]heptan-6-yl)amino)-pyrimidin-4-yl)-2-(3-(1,1-dioxidotetrahydro-2H-thiopyran-4-yl)-3,8-diazabicyclo[3.2.1]octan-8-yl)thiazol-4-yl)-2-fluorophenyl)-2,6-difluorobenzenesulfonamide] | 8.12 µM
O=S1(=O)CC2(CC(Nc3nccc(-c4sc(C56CC(C(F)(F)F)(C5)C6)nc4-c4cccc(NS(=O)(=O)c5c(F)cccc5F)c4F)n3)C2)C1 [Example 39, N-(3-(5-(2-((2,2-dioxido-2-thiaspiro[3.3]heptan-6-yl)amino)-pyrimidin-4-yl)-2-(3-(trifluoromethyl)bicyclo[1.1.1]pentan-1-yl)thiazol-4-yl)-2-fluorophenyl)-2,6-difluorobenzenesulfonamide] | 0.35 µM
O=S1(=O)CC2(CC(Nc3nccc(-c4sc(N5C6CCC5CN(Cc5ccccc5)C6)nc4-c4cccc(NS(=O)(=O)c5c(F)cccc5F)c4F)n3)C2)C1 [Example 40, N-(3-(2-(3-benzyl-3,8-diazabicyclo[3.2.1]octan-8-yl)-5-(2-((2,2-dioxido-2-thiaspiro[3.3]heptan-6-yl)amino)pyrimidin-4-yl)thiazol-4-yl)-2-fluorophenyl)-2,6-difluorobenzenesulfonamide] | 1.7 µM
O=S1(=O)CC2(CC(Nc3nccc(-c4sc(C56CC(C5)C6)nc4-c4cccc(NS(=O)(=O)c5c(F)cccc5C5CC5)c4F)n3)C2)C1 [Example 41, N-(3-(2-(bicyclo[1.1.1]pentan-1-yl)-5-(2-((2,2-dioxido-2-thiaspiro[3.3]heptan-6-yl)amino)pyrimidin-4-yl)thiazol-4-yl)-2-fluorophenyl)-2-cyclopropyl-6-fluorobenzenesulfonamide] | 0.36 µM
O=S1(=O)CC2(CC(Nc3nccc(-c4sc(N5C6CCC5CN(c5ccccn5)C6)nc4-c4cccc(NS(=O)(=O)c5c(F)cccc5F)c4F)n3)C2)C1 [Example 43, N-(3-(5-(2-((2,2-dioxido-2-thiaspiro[3.3]heptan-6-yl)amino)-pyrimidin-4-yl)-2-(3-(pyridin-2-yl)-3,8-diazabicyclo[3.2.1]octan-8-yl)thiazol-4-yl)-2-fluorophenyl)-2,6-difluorobenzenesulfonamide] | 0.46 µM

From patent US12331026B2 (NiKang Therapeutics, Inc., priority 2022, dated 2025)
